Data from ChEMBL document CHEMBL2176882 (Bioorg Med Chem Lett, 2012).
≈ marks a conversion by molar mass, not a printed value. Calls of active or inactive are those of the source. No cut-off for these calls is given here.

Assays:
[1] = biological target: Bromodomain-containing protein 2 (Homo sapiens, UniProt P25440); assay: Binding affinity to human BRD2 assessed as inhibition of Alexa Fluor 488 binding after 60 mins by fluorescence anisotropic analysis
Blood [2] = assay: Antiinflammatory activity in human whole blood assessed as inhibition of LPS-induced IL12p70 production; format: functional, tissue-based
[3] = Aqueous solubility of the compound at pH 5; format: physicochemical; conditions: aqueous medium
Blood [4] = assay: Antiinflammatory activity in human whole blood assessed as inhibition of LPS-induced IL10 production; format: functional, tissue-based
HepG2 = assay: Inhibition of BET in human HepG2 cells assessed as upregulation of ApoA1 after 18 hrs by luciferase reporter gene assay; format: cell-based
Blood [5] = assay: Antiinflammatory activity in human whole blood assessed as inhibition of LPS-induced TNFalpha production; format: functional, tissue-based
Blood [6] = assay: Antiinflammatory activity in human whole blood assessed as inhibition of LPS-induced IFNgamma production; format: functional, tissue-based
PBMC [7] = assay: cells; conditions: Homo sapiens, read-out: pIC50 (converted)
Description: Antiinflammatory activity in human PBMC assessed as inhibition of LPS-induced IL6 production

Blood [8] = assay: Antiinflammatory activity in human whole blood assessed as inhibition of LPS-induced IL8 production; format: functional, tissue-based
[9] = biological target: Bromodomain-containing protein 4 (Homo sapiens, UniProt O60885); assay: Binding affinity to BRD4 assessed as inhibition of Alexa Fluor 488 binding after 60 mins by fluorescence anisotropic analysis
[10] = biological target: Bromodomain-containing protein 3 (Homo sapiens, UniProt Q15059); assay: Binding affinity to BRD3 assessed as inhibition of Alexa Fluor 488 binding after 60 mins by fluorescence anisotropic analysis
PBMC [11] = assay: Cytotoxicity against human PBMC assessed as decrease in ATP level; format: cell-based
Albumin = Albumin (Homo sapiens, UniProt P02768); assay: Binding affinity to human serum albumin; format: ADME; conditions: read-out: PB (converted)
Chain of Albumin (P02768 whole entry): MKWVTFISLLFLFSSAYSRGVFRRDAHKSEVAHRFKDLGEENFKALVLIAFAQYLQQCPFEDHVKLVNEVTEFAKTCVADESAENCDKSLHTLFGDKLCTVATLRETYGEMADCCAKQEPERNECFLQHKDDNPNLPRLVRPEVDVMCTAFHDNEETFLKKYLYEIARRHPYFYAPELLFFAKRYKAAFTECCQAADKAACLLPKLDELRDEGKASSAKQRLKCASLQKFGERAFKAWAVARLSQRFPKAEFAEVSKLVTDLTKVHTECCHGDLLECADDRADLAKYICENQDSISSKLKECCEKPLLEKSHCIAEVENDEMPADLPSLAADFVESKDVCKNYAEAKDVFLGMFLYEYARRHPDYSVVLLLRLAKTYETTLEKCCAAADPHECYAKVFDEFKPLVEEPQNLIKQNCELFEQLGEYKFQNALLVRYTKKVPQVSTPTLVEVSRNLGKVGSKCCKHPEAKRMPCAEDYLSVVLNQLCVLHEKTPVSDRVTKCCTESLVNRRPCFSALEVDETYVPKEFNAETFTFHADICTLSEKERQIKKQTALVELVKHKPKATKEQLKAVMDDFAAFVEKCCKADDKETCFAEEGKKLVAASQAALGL

Chain of Bromodomain-containing protein 2 (P25440 whole entry): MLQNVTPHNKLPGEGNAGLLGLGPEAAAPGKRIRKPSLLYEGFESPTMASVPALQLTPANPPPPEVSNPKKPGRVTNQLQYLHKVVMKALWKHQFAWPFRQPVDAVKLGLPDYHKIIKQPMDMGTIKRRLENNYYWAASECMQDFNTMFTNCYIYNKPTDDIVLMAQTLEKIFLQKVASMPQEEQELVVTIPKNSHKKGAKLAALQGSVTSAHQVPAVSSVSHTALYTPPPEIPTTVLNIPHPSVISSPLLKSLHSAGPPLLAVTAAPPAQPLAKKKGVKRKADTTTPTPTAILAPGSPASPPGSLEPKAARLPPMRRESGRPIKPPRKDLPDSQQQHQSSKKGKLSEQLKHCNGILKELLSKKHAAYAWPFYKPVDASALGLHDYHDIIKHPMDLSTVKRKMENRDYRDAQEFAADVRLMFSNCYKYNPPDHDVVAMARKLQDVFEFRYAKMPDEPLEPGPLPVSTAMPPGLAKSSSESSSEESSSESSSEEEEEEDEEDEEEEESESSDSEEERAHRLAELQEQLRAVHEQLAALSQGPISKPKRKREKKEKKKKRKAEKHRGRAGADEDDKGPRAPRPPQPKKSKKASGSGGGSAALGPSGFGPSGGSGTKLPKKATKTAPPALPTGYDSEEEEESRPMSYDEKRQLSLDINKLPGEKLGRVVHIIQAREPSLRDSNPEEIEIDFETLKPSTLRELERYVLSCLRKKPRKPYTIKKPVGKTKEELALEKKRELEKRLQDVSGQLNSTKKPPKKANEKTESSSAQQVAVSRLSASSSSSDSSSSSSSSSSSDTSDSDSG
Chain of Bromodomain-containing protein 3 (Q15059 whole entry): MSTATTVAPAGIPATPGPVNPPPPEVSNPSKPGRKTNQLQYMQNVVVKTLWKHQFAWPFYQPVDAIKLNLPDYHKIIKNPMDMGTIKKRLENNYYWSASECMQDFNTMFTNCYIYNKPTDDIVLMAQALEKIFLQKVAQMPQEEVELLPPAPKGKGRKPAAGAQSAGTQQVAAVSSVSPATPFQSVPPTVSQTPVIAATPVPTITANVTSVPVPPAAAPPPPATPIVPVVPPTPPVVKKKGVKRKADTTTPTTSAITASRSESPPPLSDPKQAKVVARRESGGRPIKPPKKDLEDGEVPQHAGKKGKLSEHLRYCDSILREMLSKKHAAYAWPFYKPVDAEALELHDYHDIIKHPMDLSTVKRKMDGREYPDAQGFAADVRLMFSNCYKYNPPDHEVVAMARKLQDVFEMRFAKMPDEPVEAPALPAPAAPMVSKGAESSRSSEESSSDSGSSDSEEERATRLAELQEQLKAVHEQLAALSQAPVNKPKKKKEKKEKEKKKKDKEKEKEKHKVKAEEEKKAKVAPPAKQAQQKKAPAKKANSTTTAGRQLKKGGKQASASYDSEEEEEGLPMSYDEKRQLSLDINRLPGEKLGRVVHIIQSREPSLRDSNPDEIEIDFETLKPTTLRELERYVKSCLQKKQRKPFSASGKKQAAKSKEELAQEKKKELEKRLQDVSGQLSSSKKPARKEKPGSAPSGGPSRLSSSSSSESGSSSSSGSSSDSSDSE

Structure (SMILES) | IC50 [1] | solubility [3] | IC50 [9] | IC50 [10] | fraction unbound (Albumin) | Activity (Blood [2]) | Activity (Blood [4]) | pEC170 (HepG2) | Activity (Blood [5]) | Activity (Blood [6]) | IC50 (PBMC [7]) | Activity (Blood [8]) | Activity (PBMC [11])
COc1cc2c(Nc3ccccc3F)c(C(N)=O)cnc2cc1-c1c(C)noc1C | 501 nM | 13 µg/mL (≈ 32 µM) | 631 nM | 316 nM |  | inactive | Active | 6.5 | Active | inactive | 501 nM | inactive | Non-toxic
COc1cc2c(cc1-c1c(C)noc1C)ncc1[nH]c(=O)n(Cc3ccccc3)c12 | 501 nM |  | 398 nM | 251 nM |  | inactive | Active | 7.2 | Active | inactive | 100 nM | inactive | Non-toxic
Cc1noc(C)c1-c1ccc2c(Nc3ccccc3F)c(C(=O)O)cnc2c1 | 1580 nM |  | 1260 nM | 631 nM |  |  |  | 5.7 |  |  |  |  | 

Further lines, with some results ahead:

IC50 [1] | solubility [3] | IC50 [9] | IC50 [10] | fraction unbound (Albumin) | Structure (SMILES) | Activity (Blood [2]) | Activity (Blood [4]) | pEC170 (HepG2) | Activity (Blood [5]) | Activity (Blood [6]) | IC50 (PBMC [7]) | Activity (Blood [8]) | Activity (PBMC [11])
501 nM |  | 501 nM | 398 nM | 0.023 | COc1cc2c(cc1-c1c(C)noc1C)ncc1[nH]c(=O)n(-c3ccccc3C(C)(C)C)c12 | inactive | Active | 7.3 | Active | inactive |  | inactive | Non-toxic
1580 nM |  | 1000 nM | 501 nM |  | COc1cc2c(cc1-c1c(C)noc1C)ncc1[nH]c(=O)n(Cc3ccccn3)c12 | inactive | Active |  | Active | inactive |  | inactive | Non-toxic
 |  |  | 631 nM |  | COc1cc2c(cc1-c1c(C)noc1C)ncc1[nH]c(=O)n([C@@H](C)c3ccccn3)c12 | inactive | Active |  | Active | inactive |  | inactive | Non-toxic
12600 nM |  | 7940 nM | 3160 nM |  | Cc1noc(C)c1-c1ccc2c(Nc3ccccc3F)c(C(N)=O)cnc2c1 |  |  | 6.3 |  |  |  |  | 
